The text below walks through data of PMC7051184, “C9orf72 arginine-rich dipeptide repeat proteins disrupt karyopherin-mediated nuclear import” (eLife, 2020).

One test deals with T1, importin β (KPNB1) (Homo sapiens, UniProt Q14974).
T1 construct: pET30a 6His-S-Importin β(1-876); 6His (N); S-tag (N); made in house; host or cells: E. coli BL21(DE3)
The test can be described thus: Rango FRET detection of importin β-Rango dissociation. Type of test: binding. The conditions noted are these: DPR 10-mers added to importin β-bound Rango. As to the method: Full-length human importin β was expressed from pET30a-WT importin β (pKW485; [Chi et al., 1997]) at the Protein Expression Laboratory (PEL, National Cancer Institute, Frederick, MD). The transformed BL21DE3 cells were grown at 37°C in an 80L Bioflow 500 bioreactor (New Brunswick Scientific, Edison, NJ) until OD600nm = 0.6, cooled to 22°C and the expression was induced with 0.3 mM IPTG. After 12 hr induction, cells were harvested with the CARR continuous flow centrifuge and lysed in PBS with 10 mM imidazole and 5 mM TCEP with a 110EH Microfluidizer (Microfluidics, Westwood, MA) using 2 passes at 10,000 PSI under chilled conditions. The lysates were flash-frozen in liquid nitrogen and stored at −80°C. After thawing, the lysates were clarified and incubated with HIS-Select HF Nickel Affinity beads. The beads were washed with 10 mM imidazole/PBS and the protein eluted with 200 mM imidazole/PBS before dialysis in XB. The purified importin β was combined with a freshly thawed aliquot of Rango2-α1 (pK188) at 2.5:1 molar ratio ratio (12.5 µM importin β, 5 µM Rango) and supplemented with 3% glycerol. Measurement of Rango fluorescence emission in a spectrometer (see below) was used to verify the FRET-off state of the Rango/importin β mixture before freezing.
The expression of zz-RCC1 was induced at OD600nm = 0.4, followed by incubation at 22°C for 4 hr. The cells were washed with PBS, 10 mM Imidazole, 1 mM MgCl2, 5 mM TCEP, 0.2 mM AEBSF, pH 8.0, and lysed by ice-cold microfluidizer. The clarified lysates were used to isolate the zz-RCC1 proteins on HIS-Select HF Nickel Affinity beads, as described above. Proteins eluted with 0.2M imidazole/PBS were dialyzed in PBS before storage. The zz-RanQ69L (pKW1234; pK1097) was expressed from BL21DE3 cells at PEL in an 80L bioreactor, using conditions described for importin β above, except that expression was induced with 0.3 mM IPTG at 37°C for 3 hr, and lysis was performed in PBS with 10 mM Imidazole, 5 mM TCEP, 2 mM MgCl2, and 1 mM GTP. The lysates were clarified and bound to HIS-Select HF Nickel Affinity beads (Millipore Sigma). […]
FRET assays for DPR-induced dissociation of the importin β-Rango complex were performed using a mix of 5 µM Rango-2/α1 (pK188) and 12.5 µM importin β (pKW485) prepared as described above. […] Peak emissions were recorded at 480 nm (donor) and 535 nm (acceptor) in all samples, and background emission subtracted at the same wavelengths in the blank. The FRET signal was calculated as the ratio of background-subtracted acceptor/donor emissions. The signal detected in the untreated sample (20 nM Rango and 50 nM importin β-only, the lowest FRET), was then subtracted from the resulting values. […]

A further test concerns importin α. Nature of the test: DPR aggregation assay and western blot, ImpA.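 On ImpA band density, % untr control: RNA rows contain added 20 µg total HEK RNA while no-RNA rows lack it.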 Type of test: biochemical, human. The conditions noted are these: for ImpA band density, Pellet / ImpA band density, Supernatant: 100 µM 10mer in 2.5 mg/ml HEK lysate, normalized to untreated HEK; for ImpA band density, % untr control: Fig 5-suppl 3C, normalized to untreated HEK on same membrane. As to the method: (§1) Supernatant and pellet fractions (for all 5 DPRs, and control/buffer only) were prepared as in the nuclear transport assays, by adding 100 µM 10mers to 2.5 mg/ml HEK lysate in 100 µL TRB. Supernatants were boiled in Laemmli (BioRad) for 5 min. Pellets were boiled for 15 min followed by sonication in order to fully disperse aggregates for SDS-PAGE. Equal volumes of supernatant and pellet fractions were run on 4–12% Bolt Bis-Tris Plus gels (ThermoFisher), transferred to nitrocellulose membrane using an iBlot2 dry blotting system (ThermoFisher). Protein loading was analyzed by BLOT-Faststain (G-biosciences, St. Louis, MO), according to the manufacterers’ instructions. For immunodetection, membranes were blocked with 5% non-fat milk in TBST and probed by sequential incubation with the primary antibodies as detailed in the table below. Detection was by HRP-conjugated secondary antibodies/chemiluminescence using an ImageQuant LAS 4000 system (GE, Chicago, IL). To permit sequential probing of membranes without stripping, signals were quenched by incubation with prewarmed 30% H20_2 for 20 min ([Sennepin et al., 2009]). Band intensities were measured by ImageQuant software. For pellet vs. supernatant fractions, all were expressed as percent untreated control. For blots in Figure 1E, samples were run on 4–20% SDS PAGE minigels (ThermoFisher) and blotted to PVDF membranes (Immun-Blot PVDF, Bio-Rad) using the Bio-Rad TransBlot Turbo apparatus, and probed as above. The chemiluminescence signal was captured with a Bio-Rad ChemiDoc XRS+ digital imaging system.

Another test deals with Ran. The test can be described thus: DPR aggregation assay and western blot, Ran.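 On Ran band density, % untr control: RNA rows contain added 20 µg total HEK RNA while no-RNA rows lack it.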 The conditions noted are these: for Ran band density, Pellet / Ran band density, Supernatant: 100 µM 10mer in 2.5 mg/ml HEK lysate, normalized to untreated HEK; for Ran band density, % untr control: Fig 5-suppl 3C, normalized to untreated HEK on same membrane. In kind it is biochemical, human. How it is done:
as §1

The target of test [1] is passive nuclear influx of 40 kD dextran. Nature of the test: Passive import assay, 40 kD dextran, permeabilized HeLa. In kind it is cell-based, human. As to conditions: preincubation 30–60 min, with energy and lysate; imaged 5 min.
Where [2] appears, read: Pellet, no RNA (Untreated), blot 1.
[3] abbreviates: Pellet, no RNA (Untreated), blot 2.
The mark [4] stands for this setting: Supernatant, no RNA (Untreated), blot 1.
[5] abbreviates: Supernatant, no RNA (Untreated), blot 2.

Where a SMILES comes first, the peptide text is derived from it.

T1 sequence (Q14974 whole entry): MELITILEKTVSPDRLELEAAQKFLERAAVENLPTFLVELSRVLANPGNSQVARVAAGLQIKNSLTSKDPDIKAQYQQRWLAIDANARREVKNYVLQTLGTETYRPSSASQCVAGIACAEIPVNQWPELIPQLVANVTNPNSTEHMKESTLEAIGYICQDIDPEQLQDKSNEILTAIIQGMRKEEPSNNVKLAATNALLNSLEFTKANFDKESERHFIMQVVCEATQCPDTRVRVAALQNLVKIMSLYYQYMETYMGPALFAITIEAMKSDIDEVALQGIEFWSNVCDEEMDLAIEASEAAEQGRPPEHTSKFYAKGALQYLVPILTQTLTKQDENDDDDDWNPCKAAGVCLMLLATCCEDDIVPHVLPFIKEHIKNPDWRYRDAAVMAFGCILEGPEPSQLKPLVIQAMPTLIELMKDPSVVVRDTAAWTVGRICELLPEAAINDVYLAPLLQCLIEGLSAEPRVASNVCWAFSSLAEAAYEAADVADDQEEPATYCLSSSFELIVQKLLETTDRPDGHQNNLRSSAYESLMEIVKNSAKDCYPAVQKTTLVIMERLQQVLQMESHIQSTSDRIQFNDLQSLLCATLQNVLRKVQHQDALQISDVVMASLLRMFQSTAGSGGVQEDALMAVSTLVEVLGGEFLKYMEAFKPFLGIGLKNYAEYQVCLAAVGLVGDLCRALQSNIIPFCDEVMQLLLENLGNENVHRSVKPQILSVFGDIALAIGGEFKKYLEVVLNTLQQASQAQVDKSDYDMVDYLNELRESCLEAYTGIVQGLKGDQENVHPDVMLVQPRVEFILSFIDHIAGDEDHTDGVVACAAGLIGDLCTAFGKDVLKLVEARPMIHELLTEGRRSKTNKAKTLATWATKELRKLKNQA

In the case of `N=C(N)NCCC[C@H](NC(=O)[C@@H]1CCCN1C(=O)[C@H](CCCNC(=N)N)NC(=O)[C@@H]1CCCN1C(=O)[C@H](CCCNC(=N)N)NC(=O)[C@@H]1CCCN1C(=O)[C@H](CCCNC(=N)N)NC(=O)[C@@H]1CCCN1C(=O)[C@H](CCCNC(=N)N)NC(=O)[C@@H]1CCCN1C(=O)[C@H](CCCNC(=N)N)NC(=O)[C@@H]1CCCN1C(=O)[C@H](CCCNC(=N)N)NC(=O)[C@@H]1CCCN1C(=O)[C@H](CCCNC(=N)N)NC(=O)[C@@H]1CCCN1C(=O)[C@H](CCCNC(=N)N)NC(=O)[C@@H]1CCCN1C(=O)[C@H](CCCNC(=N)N)NC(=O)[C@@H]1CCCN1)C(=O)O` [PR10] (H-PRPRPRPRPRPRPRPRPRPR-OH; N-terminus and C-terminus assumed), the “Effect on Rango FRET” value on importin β (KPNB1) is “dose-dependent increase in FRET”. In addition, the “ImpA band density, Pellet” value in the test on importin α (Blot 1) is recorded as 170.0 % control; in the test on importin α (Blot 2), 198.7 % control. Besides, the “ImpA band density, Supernatant” value with importin α (Blot 1) worked out at 78.1 % control; in the test with importin α (Blot 2) it was 90.0 % control. The “ImpA band density, % untr control” value with importin α (Pellet, RNA, blot 1) was found to be 171.92%; in the test on importin α (Pellet, RNA, blot 2) it was 154.07%; in the test with importin α (setting [2]) it was 177.99%; in the test on importin α (setting [3]), 181.79%; with importin α (Supernatant, RNA, blot 1) it was 85.78%; with importin α (Supernatant, RNA, blot 2) it was 111.13%. Further, the figures for the “ImpA band density, % untr control” value in the test on importin α (setting [4]) and with importin α (setting [5]) were 79.74% and 105.29%, respectively. The “Ran band density, Pellet” value is recorded as 101.8 % control in the test on Ran (Blot 1) and 132.9 % control in the test on Ran (Blot 2). Moreover, the results for the “Ran band density, Supernatant” value in the test with Ran (Blot 1) and with Ran (Blot 2) were 104.7 % control and 105.7 % control, respectively. The “Ran band density, % untr control” value in the test with Ran (Pellet, RNA, blot 1) was 201.97%; with Ran (Pellet, RNA, blot 2) it was 271.01%; in the test with Ran (setting [2]) it was 172.26%; with Ran (setting [3]) it was 224.02%; with Ran (Supernatant, RNA, blot 1) it was 114.46%; in the test with Ran (Supernatant, RNA, blot 2) it was 110.30%. The “Ran band density, % untr control” value with Ran (setting [4]) worked out at 105.51%; in the test on Ran (setting [5]) it was 113.60%.

“GA10: Synthetic 10-mer GA dipeptide repeat with C-terminal lysine and cysteine (GAGAGAGAGAGAGAGAGAGAKC)”: in the test with importin β (KPNB1), the “Effect on Rango FRET” value is on record as “did not affect Rango FRET”. In addition, in test [1], the “Effect on passive nuclear influx of 40-kD dextran” value (“Effect on passive nuclear influx” below) was “not observed”. Also, the “ImpA band density, % untr control” value was found to be 93.99% in the test on importin α (Pellet, RNA, blot 1); 102.25% in the test on importin α (Pellet, RNA, blot 2); 106.73% in the test with importin α (setting [2]); 98.70% with importin α (setting [3]); 83.82% in the test with importin α (Supernatant, RNA, blot 1); 115.58% with importin α (Supernatant, RNA, blot 2). The results for the “ImpA band density, % untr control” value with importin α (setting [4]) and with importin α (setting [5]) were 82.83% and 108.20%, respectively. The “Ran band density, % untr control” value in the test with Ran (Pellet, RNA, blot 1) is listed as 129.05%; in the test with Ran (Pellet, RNA, blot 2) it was 192.76%; with Ran (setting [2]), 79.12%; in the test with Ran (setting [3]), 116.78%; in the test with Ran (Supernatant, RNA, blot 1), 116.22%; in the test on Ran (Supernatant, RNA, blot 2), 99.76%. Further, the results for the “Ran band density, % untr control” value in the test with Ran (setting [4]) and with Ran (setting [5]) were 117.84% and 105.67%, respectively.

Take “GPGPGPGPGPGPGPGPGPGPKC [GP10, Synthetic 10-mer GP dipeptide repeat with C-terminal lysine and cysteine]”: the “Effect on Rango FRET” value at importin β (KPNB1) is given as “did not affect Rango FRET”. The “Effect on passive nuclear influx” value in test [1] is listed as “not observed”.

With “PA10: Synthetic 10-mer PA dipeptide repeat with C-terminal lysine and cysteine (PAPAPAPAPAPAPAPAPAPAKC)”, in the test with importin β (KPNB1), the “Effect on Rango FRET” value is recorded as “did not affect Rango FRET”. Moreover, the “Effect on passive nuclear influx” value in test [1] is listed as “not observed”.
